According to PubChem BioAssay (NCI):
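Assay format: 96-well plates, 48-hour exposure. TGI: total growth inhibition.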

Tests used:
Experiment in all cases: NCI anticancer screen, dose series, 48 h
[1] = tested on: NCI/ADR-RES ovarian
[2] = tested on: SF-539 CNS
[3] = tested on: A498 renal
[4] = tested on: DU-145 prostate
[5] = tested on: SK-MEL-2 melanoma
[6] = tested on: HOP-62 NSCLC
[7] = tested on: HCT-15 colon
[8] = tested on: KM12 colon
[9] = tested on: BT-549 breast
[10] = tested on: M14 melanoma
[11] = tested on: CAKI-1 renal
[12] = tested on: SK-MEL-5 melanoma
[13] = tested on: OVCAR-4 ovarian
[14] = tested on: SK-OV-3 ovarian
[15] = tested on: OVCAR-8 ovarian
[16] = tested on: MCF7 breast
[17] = tested on: SF-295 CNS
[18] = tested on: K-562 leukemia
[19] = tested on: SW-620 colon
[20] = tested on: NCI-H522 lung

## CC(=O)O[C@H]1CCC2[C@@H]3CCC4Nc5oncc5C[C@]4(C)C3CC[C@@]21C (stereo not given in full)
[1]
  TGI: > 10 µM
[2]
  TGI: 9.84 µM
[3]
  TGI: > 10 µM
[4]
  TGI: > 10 µM
[5]
  TGI: > 10 µM
[6]
  TGI: > 10 µM
[7]
  TGI: > 10 µM
[8]
  TGI: > 10 µM
[9]
  TGI: > 10 µM
[10]
  TGI: > 10 µM
[11]
  TGI: > 10 µM
[12]
  TGI: > 10 µM
[13]
  TGI: > 10 µM
[14]
  TGI: > 10 µM
[15]
  TGI: > 10 µM
[16]
  TGI: > 10 µM
[17]
  TGI: > 10 µM
[18]
  TGI: > 10 µM
[19]
  TGI: > 10 µM

## O=C1/C(=C/c2cccc(Br)c2)Cc2ccccc21
[20]
  TGI: > 100 µM
[1]
  TGI: > 100 µM
[2]
  TGI: > 100 µM
[4]
  TGI: > 100 µM
[5]
  TGI: > 100 µM
[6]
  TGI: > 100 µM
[7]
  TGI: > 100 µM
[8]
  TGI: > 100 µM
[9]
  TGI: > 100 µM
[10]
  TGI: > 100 µM
[11]
  TGI: > 100 µM
[13]
  TGI: > 100 µM
[14]
  TGI: > 100 µM
[15]
  TGI: > 100 µM
[16]
  TGI: > 100 µM
[17]
  TGI: > 100 µM
[18]
  TGI: > 100 µM
[19]
  TGI: > 100 µM

## CCCCCCCCCCCCC/C=C/[C@@H](O)[C@H](COC1OC(CO)C(OC2OC(CO)C(O)C(OC3(C(=O)O)CC(O)C(NC(C)=O)C(C(O)C(O)CO)O3)C2O)C(O)C1O)N=[N+]=[N-] (stereo not given in full)
[20]
  TGI: 70.5 µM
[1]
  TGI: 59.9 µM
[2]
  TGI: 31.9 µM
[3]
  TGI: > 100 µM
[4]
  TGI: > 100 µM
[5]
  TGI: 49.7 µM
[6]
  TGI: 46.2 µM
[7]
  TGI: > 100 µM
[8]
  TGI: 34.1 µM
[10]
  TGI: 34.3 µM
[11]
  TGI: > 100 µM
[12]
  TGI: 41.6 µM
[13]
  TGI: > 100 µM
[14]
  TGI: 78.8 µM
[15]
  TGI: 44.9 µM
[16]
  TGI: > 100 µM
[17]
  TGI: 88 µM
[18]
  TGI: 60.6 µM
[19]
  TGI: 61.7 µM

## COc1cc(N(CCC#N)CCC#N)ccc1/C(N=Nc1ccccc1C)=N\NC(=O)c1ccc(C)cc1
[20]
  TGI: > 100 µM
[1]
  TGI: > 100 µM
[4]
  TGI: > 100 µM
[5]
  TGI: > 100 µM
[6]
  TGI: > 100 µM
[7]
  TGI: > 100 µM
[8]
  TGI: > 100 µM
[9]
  TGI: > 100 µM
[10]
  TGI: > 100 µM
[11]
  TGI: > 100 µM
[12]
  TGI: > 100 µM
[13]
  TGI: > 100 µM
[14]
  TGI: > 100 µM
[15]
  TGI: > 100 µM
[17]
  TGI: > 100 µM
[18]
  TGI: > 100 µM
[19]
  TGI: > 100 µM

## COC(=O)[C@]12CCC(C)(C)C[C@H]1[C@H]1C(=O)C=C3[C@@]4(C)C=C(C#N)C(=O)C(C)(C)[C@@H]4CC[C@@]3(C)[C@]1(C)CC2
[20]
  TGI: > 100 µM
[1]
  TGI: 0.0337 µM
[2]
  TGI: 0.103 µM
[3]
  TGI: 0.114 µM
[4]
  TGI: 0.295 µM
[5]
  TGI: 0.187 µM
[6]
  TGI: 0.0547 µM
[7]
  TGI: 0.0392 µM
[8]
  TGI: 0.159 µM
[9]
  TGI: 0.194 µM
[10]
  TGI: 0.0876 µM
[11]
  TGI: 0.078 µM
[12]
  TGI: 0.109 µM
[13]
  TGI: > 7.76 µM
[14]
  TGI: 1.1 µM
[15]
  TGI: 0.0414 µM
[17]
  TGI: 0.105 µM
[18]
  TGI: > 27.9 µM
[19]
  TGI: 0.946 µM

## CC1C[C@]2(C)C(=NCCN)Nc3ccccc3[C@@H]2N(C)c2ccccc21 (stereo not given in full)
[1]
  TGI: 59 µM
[2]
  TGI: 25.9 µM
[3]
  TGI: 30.5 µM
[4]
  TGI: 28.7 µM
[5]
  TGI: 34.3 µM
[6]
  TGI: 30.6 µM
[7]
  TGI: 34.5 µM
[8]
  TGI: 30 µM
[10]
  TGI: 3.56 µM
[11]
  TGI: 31.3 µM
[12]
  TGI: 26.8 µM
[13]
  TGI: 30.4 µM
[15]
  TGI: 27.9 µM
[16]
  TGI: 21.3 µM
[17]
  TGI: 32 µM
[18]
  TGI: 40.2 µM
[19]
  TGI: 35.9 µM

## COc1ccc2c(c1)nc1n2C(c2c(Cl)cccc2Cl)SC1 (stereo not given)
[1]
  TGI: > 52.5 µM
[2]
  TGI: > 100 µM
[3]
  TGI: > 100 µM
[4]
  TGI: > 100 µM
[5]
  TGI: > 74 µM
[6]
  TGI: > 71 µM
[7]
  TGI: > 100 µM
[8]
  TGI: > 100 µM
[9]
  TGI: > 100 µM
[10]
  TGI: > 43.7 µM
[11]
  TGI: > 100 µM
[12]
  TGI: > 100 µM
[13]
  TGI: > 100 µM
[14]
  TGI: > 100 µM
[15]
  TGI: > 100 µM
[16]
  TGI: > 37.5 µM
[17]
  TGI: > 70.4 µM
[18]
  TGI: > 100 µM
[19]
  TGI: > 53.8 µM

## N#CC1=C(Nc2ccccc2)SC=C(c2ccccc2)NC1=NCc1ccccc1
[20]
  TGI: > 100 µM
[1]
  TGI: > 100 µM
[2]
  TGI: > 100 µM
[3]
  TGI: > 100 µM
[4]
  TGI: > 100 µM
[5]
  TGI: > 100 µM
[6]
  TGI: > 100 µM
[7]
  TGI: > 100 µM
[8]
  TGI: > 100 µM
[10]
  TGI: > 100 µM
[11]
  TGI: > 100 µM
[12]
  TGI: > 100 µM
[13]
  TGI: > 100 µM
[14]
  TGI: > 100 µM
[15]
  TGI: > 100 µM
[16]
  TGI: > 100 µM
[18]
  TGI: 97.6 µM
[19]
  TGI: > 100 µM

## COC(=O)C1(C(=O)OC)C/C(C)=C(/C)SCCCS1
[20]
  TGI: > 100 µM
[1]
  TGI: > 100 µM
[2]
  TGI: > 100 µM
[4]
  TGI: > 100 µM
[5]
  TGI: > 100 µM
[6]
  TGI: > 100 µM
[7]
  TGI: > 100 µM
[8]
  TGI: > 100 µM
[10]
  TGI: > 100 µM
[11]
  TGI: > 100 µM
[12]
  TGI: > 100 µM
[13]
  TGI: > 100 µM
[14]
  TGI: > 100 µM
[15]
  TGI: > 100 µM
[16]
  TGI: > 100 µM
[17]
  TGI: > 100 µM
[18]
  TGI: > 100 µM
[19]
  TGI: > 100 µM

## COc1ccc(-c2nc(-c3cc4c(ccc5ccccc54)oc3=O)cs2)cc1
[2]
  TGI: > 100 µM
[4]
  TGI: > 100 µM
[5]
  TGI: > 100 µM
[6]
  TGI: > 100 µM
[7]
  TGI: > 100 µM
[8]
  TGI: > 100 µM
[9]
  TGI: > 100 µM
[10]
  TGI: > 100 µM
[11]
  TGI: > 100 µM
[12]
  TGI: > 100 µM
[13]
  TGI: > 100 µM
[14]
  TGI: > 100 µM
[16]
  TGI: > 100 µM
[17]
  TGI: > 100 µM
[18]
  TGI: > 100 µM
[19]
  TGI: > 100 µM

## Cc1cn(C2CC(O)C(CO[Si](C)(C)C(C)(C)C)OC2OC(C)C)c(=O)[nH]c1=O (stereo not given)
[20]
  TGI: 89 µM
[1]
  TGI: > 100 µM
[2]
  TGI: 56.1 µM
[4]
  TGI: > 100 µM
[5]
  TGI: > 100 µM
[7]
  TGI: > 100 µM
[8]
  TGI: > 100 µM
[9]
  TGI: > 100 µM
[10]
  TGI: 92.5 µM
[11]
  TGI: > 100 µM
[12]
  TGI: 93.9 µM
[13]
  TGI: > 100 µM
[15]
  TGI: 91.8 µM
[16]
  TGI: 58.3 µM
[17]
  TGI: > 100 µM
[18]
  TGI: > 100 µM
[19]
  TGI: > 100 µM

## O=C(O)c1nc2ccc(C(F)(F)F)cc2nc1NCc1ccc(F)cc1
[1]
  TGI: > 100 µM
[2]
  TGI: 43.5 µM
[3]
  TGI: 55.4 µM
[4]
  TGI: > 100 µM
[5]
  TGI: 45.1 µM
[6]
  TGI: 46.1 µM
[7]
  TGI: 87.5 µM
[8]
  TGI: > 100 µM
[9]
  TGI: 90.2 µM
[10]
  TGI: 61.7 µM
[11]
  TGI: > 100 µM
[12]
  TGI: 35.2 µM
[13]
  TGI: > 100 µM
[14]
  TGI: 93 µM
[15]
  TGI: 55.7 µM
[16]
  TGI: 68.8 µM
[17]
  TGI: 81.1 µM
[18]
  TGI: 55.6 µM
[19]
  TGI: > 100 µM

## CCOC(=O)c1c(NC(=O)OC)c(C#N)c2n1CCCCC2
[1]
  TGI: > 100 µM
[2]
  TGI: > 100 µM
[3]
  TGI: > 100 µM
[4]
  TGI: 43.9 µM
[5]
  TGI: > 100 µM
[6]
  TGI: > 100 µM
[7]
  TGI: > 100 µM
[8]
  TGI: > 100 µM
[9]
  TGI: > 100 µM
[10]
  TGI: > 100 µM
[11]
  TGI: > 100 µM
[12]
  TGI: > 100 µM
[13]
  TGI: > 100 µM
[14]
  TGI: > 100 µM
[15]
  TGI: > 100 µM
[16]
  TGI: > 100 µM
[17]
  TGI: > 100 µM
[18]
  TGI: > 100 µM
[19]
  TGI: > 100 µM
